Reference: patent EP1181935A2, “Agent for treating mental disorders associated with cerebrovascular disorders” (SUMITOMO PHARMACEUTICALS COMPANY, LIMITED, priority 1995, dated 1996)
Where a name gives a salt, the structure may show the parent alone.

Tested on: patients with cerebral infarction or hemorrhage accompanied by various mental disorders
Assay: Clinical trial of SM-9018 for mental disorders associated with cerebrovascular disorders
Assay type: in vivo
Conditions: 8 weeks
Protocol: Examination 1 Clinical trial of SM-9018 for mental disorders associated with cerebrovascular disorders.
SM-9018 was administered to patients with cerebral infarction or hemorrhage accompanied by various mental disorders described above to examine whether the mental disorders will be improved or not.
One mg/dosage of SM-9018 was orally administered once (Step I), twice (Step II) or 3 times a day (Step III) for up to 2 weeks after the administration was started and, when the treatment was effective, administration thereof was continued.
[2] Administration periods: 8 weeks
Improvement of the mental disorders was evaluated by categorizing into 4 grades: i.e. 1) "excellent", 2) "moderate", 3) "slight", or 4) "unchanged" or other. Among the results obtained, "the number of patients categorized to 1) + 2) divided by the number of patients tested" for each symptom is summarized in the following Tables 1 to 3.

[1] = Step I: 1 mg orally once a day (increased to 1 mg x 2 times/day if no effect)
[2] = Step I: 1 mg orally once a day (increased to 1 mg x 2 times/day if no effect), 35 patients examined
[3] = Step II: 1 mg orally twice a day (increased to 2 mg x 2 times/day if no effect)
[4] = Step II: 1 mg orally twice a day (increased to 2 mg x 2 times/day if no effect), 28 patients examined
[5] = Step III: 1 mg orally 3 times a day (increased to 2 mg x 3 times/day if no effect)
[6] = Step III: 1 mg orally 3 times a day (increased to 2 mg x 3 times/day if no effect), 20 patients examined

O=C1[C@H]2CCCC[C@H]2C(=O)N1CCCCN1CCN(c2nsc3ccccc23)CC1 [SM-9018, N-[4-[4-(1,2-benzisothiazol-3-yl)-1-piperazinyl]butyl]-1,2-cis-cyclohexandicarboxyimide hydrochloride]
Aggressive behavior: number of patients categorized to 1) + 2) divided by the number of patients tested [1]: 2/7 | Anxiety: number of patients categorized to 1) + 2) divided by the number of patients tested [1]: 3/22 | Bad humor: number of patients categorized to 1) + 2) divided by the number of patients tested [1]: 4/18 | Delirium: number of patients categorized to 1) + 2) divided by the number of patients tested [1]: 1/4 | Depressive mood: number of patients categorized to 1) + 2) divided by the number of patients tested [1]: 4/25 | Emotional incontinence: number of patients categorized to 1) + 2) divided by the number of patients tested [1]: 2/13 | Emotional tension: number of patients categorized to 1) + 2) divided by the number of patients tested [1]: 2/18 | Fugue: number of patients categorized to 1) + 2) divided by the number of patients tested [1]: 1/6 | Irritability: number of patients categorized to 1) + 2) divided by the number of patients tested [1]: 4/25 | Mental excitement: number of patients categorized to 1) + 2) divided by the number of patients tested [1]: 2/14 | Reduced expression of desires: number of patients categorized to 1) + 2) divided by the number of patients tested [1]: 3/29 | Reduced initiative in activities: number of patients categorized to 1) + 2) divided by the number of patients tested [1]: 3/30 | Reduced interest in housework, amusement, pastime and the like: number of patients categorized to 1) + 2) divided by the number of patients tested [1]: 4/31 | Reduced positiveness to an influence: number of patients categorized to 1) + 2) divided by the number of patients tested [1]: 5/30 | Total emotional disorders: number of patients categorized to 1) + 2) divided by the number of patients tested [1]: 8/33 | Total loss of spontaneity: number of patients categorized to 1) + 2) divided by the number of patients tested [1]: 4/32 | Total problem behavior: number of patients categorized to 1) + 2) divided by the number of patients tested [1]: 2/18 | patients with some improvement of mental disorders, including those judged as "slight" (global evaluation) [1]: about 77% | Final global improvement rating: Excellent (number of patients) [2]: 2 | Final global improvement rating: Moderate (number of patients) [2]: 5 | Final global improvement rating: Slight (number of patients) [2]: 20 | Aggressive behavior: number of patients categorized to 1) + 2) divided by the number of patients tested [3]: 3/4 | Anxiety: number of patients categorized to 1) + 2) divided by the number of patients tested [3]: 4/23 | Bad humor: number of patients categorized to 1) + 2) divided by the number of patients tested [3]: 9/21 | Delirium: number of patients categorized to 1) + 2) divided by the number of patients tested [3]: 2/5 | Depressive mood: number of patients categorized to 1) + 2) divided by the number of patients tested [3]: 8/23 | Emotional incontinence: number of patients categorized to 1) + 2) divided by the number of patients tested [3]: 3/13 | Emotional tension: number of patients categorized to 1) + 2) divided by the number of patients tested [3]: 3/18 | Fugue: number of patients categorized to 1) + 2) divided by the number of patients tested [3]: 1/3 | Irritability: number of patients categorized to 1) + 2) divided by the number of patients tested [3]: 5/19 | Mental excitement: number of patients categorized to 1) + 2) divided by the number of patients tested [3]: 4/10 | Reduced expression of desires: number of patients categorized to 1) + 2) divided by the number of patients tested [3]: 5/23 | Reduced initiative in activities: number of patients categorized to 1) + 2) divided by the number of patients tested [3]: 5/26 | Reduced interest in housework, amusement, pastime and the like: number of patients categorized to 1) + 2) divided by the number of patients tested [3]: 6/27 | Reduced positiveness to an influence: number of patients categorized to 1) + 2) divided by the number of patients tested [3]: 6/23 | Total emotional disorders: number of patients categorized to 1) + 2) divided by the number of patients tested [3]: 11/28 | Total loss of spontaneity: number of patients categorized to 1) + 2) divided by the number of patients tested [3]: 8/27 | Total problem behavior: number of patients categorized to 1) + 2) divided by the number of patients tested [3]: 5/10 | patients with some improvement of mental disorders, including those judged as "slight" (global evaluation) [3]: about 75% | Final global improvement rating: Excellent (number of patients) [4]: 3 | Final global improvement rating: Moderate (number of patients) [4]: 10 | Final global improvement rating: Slight (number of patients) [4]: 8 | Aggressive behavior: number of patients categorized to 1) + 2) divided by the number of patients tested [5]: 2/5 | Anxiety: number of patients categorized to 1) + 2) divided by the number of patients tested [5]: 6/19 | Bad humor: number of patients categorized to 1) + 2) divided by the number of patients tested [5]: 6/16 | Delirium: number of patients categorized to 1) + 2) divided by the number of patients tested [5]: 1/4 | Depressive mood: number of patients categorized to 1) + 2) divided by the number of patients tested [5]: 6/18 | Emotional incontinence: number of patients categorized to 1) + 2) divided by the number of patients tested [5]: 2/10 | Emotional tension: number of patients categorized to 1) + 2) divided by the number of patients tested [5]: 5/15 | Fugue: number of patients categorized to 1) + 2) divided by the number of patients tested [5]: 0/3 | Irritability: number of patients categorized to 1) + 2) divided by the number of patients tested [5]: 5/16 | Mental excitement: number of patients categorized to 1) + 2) divided by the number of patients tested [5]: 3/8 | Reduced expression of desires: number of patients categorized to 1) + 2) divided by the number of patients tested [5]: 3/16 | Reduced initiative in activities: number of patients categorized to 1) + 2) divided by the number of patients tested [5]: 6/17 | Reduced interest in housework, amusement, pastime and the like: number of patients categorized to 1) + 2) divided by the number of patients tested [5]: 8/16 | Reduced positiveness to an influence: number of patients categorized to 1) + 2) divided by the number of patients tested [5]: 3/17 | Total emotional disorders: number of patients categorized to 1) + 2) divided by the number of patients tested [5]: 10/20 | Total loss of spontaneity: number of patients categorized to 1) + 2) divided by the number of patients tested [5]: 9/18 | Total problem behavior: number of patients categorized to 1) + 2) divided by the number of patients tested [5]: 3/10 | patients with some improvement of mental disorders, including those judged as "slight" (global evaluation) [5]: about 80% | Final global improvement rating: Excellent (number of patients) [6]: 6 | Final global improvement rating: Moderate (number of patients) [6]: 7 | Final global improvement rating: Slight (number of patients) [6]: 3
